The source made the active and inactive calls.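 Rule for the calls: active = a fitted half-maximal concentration EC50 for the rise in nuclear signal no higher than ten times the top dose tested; inconclusive = flat fit with activity between 30% and 70%, or unusable fit; inactive = EC50 beyond ten times the top dose.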 Some results are limits rather than exact numbers.

For this assay, the target named is Hypoxia-inducible factor 1-alpha (Homo sapiens) (UniProt Q16665). The experiment in a line: activators of HIF1alpha nuclear accumulation, confirmation, imaging, fluorescence, U2OS GFP-HIF1alpha (AID 434951). The conditions noted are these: U2OS GFP-HIF1alpha nuclear intensity, high-content imaging.
Chain of Hypoxia-inducible factor 1-alpha (Homo sapiens) (Q16665 whole entry, looked up): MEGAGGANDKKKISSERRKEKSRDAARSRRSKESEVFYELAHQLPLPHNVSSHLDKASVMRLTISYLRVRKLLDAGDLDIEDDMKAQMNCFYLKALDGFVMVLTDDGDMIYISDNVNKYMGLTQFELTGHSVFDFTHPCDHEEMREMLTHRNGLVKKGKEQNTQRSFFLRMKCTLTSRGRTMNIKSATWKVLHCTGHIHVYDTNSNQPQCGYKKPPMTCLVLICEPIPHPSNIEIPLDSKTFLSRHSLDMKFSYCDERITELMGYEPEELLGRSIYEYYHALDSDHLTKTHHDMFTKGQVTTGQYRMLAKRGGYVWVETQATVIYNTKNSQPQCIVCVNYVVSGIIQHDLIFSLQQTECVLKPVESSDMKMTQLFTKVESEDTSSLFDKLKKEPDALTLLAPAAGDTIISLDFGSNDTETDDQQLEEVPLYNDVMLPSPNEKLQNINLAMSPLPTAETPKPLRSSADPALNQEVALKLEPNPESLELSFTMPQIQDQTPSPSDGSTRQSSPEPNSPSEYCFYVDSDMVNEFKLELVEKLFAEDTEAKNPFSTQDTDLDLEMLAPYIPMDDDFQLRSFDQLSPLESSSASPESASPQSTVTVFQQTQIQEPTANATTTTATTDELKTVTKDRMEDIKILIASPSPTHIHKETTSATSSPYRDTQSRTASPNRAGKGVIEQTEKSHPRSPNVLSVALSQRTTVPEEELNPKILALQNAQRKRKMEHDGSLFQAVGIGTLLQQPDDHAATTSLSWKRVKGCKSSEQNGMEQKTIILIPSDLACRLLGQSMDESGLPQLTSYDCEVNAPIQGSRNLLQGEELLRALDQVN
As for `Cc1ccc(-n2cc(CN3CCC(CO)(Cc4ccccc4)CC3)cn2)cc1`, the EC50 is > 35 µM (inactive).
`Cc1cc(C)nc(N/N=C/c2cc(Br)ccc2O)n1`: the EC50 is 8.31 µM.
Take `N/C(=N\OC(=O)C(c1ccccc1)c1ccccc1)c1cccnc1`: the EC50 is > 35 µM (inactive).
On to `CN1CCN(Cc2cc(COCc3ccccc3)c3cccnc3c2O)CC1`, for which the concentration for a half-maximal effect (EC50) was 7.82 µM.
As for `COc1cc(/C=C/C(=O)c2ccc3c(c2)OCCO3)cc(Br)c1OCC(=O)N(C)C`, the EC50 is > 35 µM (inactive).
Consider `O=C(Nc1nc2ccc([N+](=O)[O-])cc2s1)c1c(F)cccc1F`, for which the EC50 is > 35 µM (inactive).
For `CC(C)(C)c1csc(NNC(=O)c2ccc(Br)cc2)n1` the value was 29 µM; for `Cc1ccc(NC(=O)N2CCC(NC(=O)c3cccc(C)c3)CC2)cc1`, > 35 µM (inactive).
`CCOC(=O)c1c(NS(=O)(=O)c2ccccc2)n(CCCOC)c2nc3ccccc3nc12`: the EC50 was > 35 µM (inactive).
Regarding `CN(C)CCCN(C(=O)CCS(=O)(=O)c1ccccc1)c1nc2cc3c(cc2s1)OCO3`, the EC50 was > 35 µM (inactive).
For `O=C(N/N=C/c1c(O)ccc2ccccc12)c1[nH]ncc1Br`, the EC50 was 7.11 µM.
For `FC(F)(F)c1ccc(-c2nc(=S)[nH][nH]2)cc1` the value was > 35 µM (inactive); for `CC(=O)NC(c1ccc2ccccc2c1)c1ccc2cccnc2c1O` (stereo unspecified), 8.56 µM.
For the compound `CCc1ccc(OCC(=O)Nc2ccncc2)c(Br)c1`, the EC50 is > 35 µM (inactive).
As for `Cc1ccc(C)c(SCC(=O)OCC(=O)N2CC(C)OC(C)C2)c1` (stereo unspecified), the EC50 is > 35 µM (inactive).
The result for `C/C(=N\OCc1nc2ccccc2c(=O)n1/N=C/c1cc(C)cc([N+](=O)[O-])c1O)c1ccccc1` reads > 35 µM (inactive).
As for `CCCCC(=O)Nc1ccc(NC(=O)CC)cc1OC`, the EC50 is > 35 µM (inactive).
With `CCCC(=O)NC(c1ccc(C)cc1)c1ccc2cccnc2c1O` (stereo unspecified), the EC50 was 7.22 µM.
On to `COc1ccc(OC)c(CNC(=O)C2CCCN(S(=O)(=O)N3CCC(C)CC3)C2)c1` (stereo unspecified), for which the EC50 was > 35 µM (inactive).
The result for `O=C(NCCc1ccccc1)c1cc(-c2ccco2)on1` reads 10.8 µM; that for `N#CC(=C=[N-])c1nc2ccccc2nc1-[n+]1cccc(NC(=O)c2ccc(F)cc2)c1`, > 35 µM (inactive).
For the compound `Oc1c(C=C2N=c3ccccc3=N2)sc(=S)n1-c1ccccc1`, the EC50 was > 35 µM (inactive).
For `CC(C)c1onc(C(=O)Nc2sc3c(c2C#N)CCC3)c1[N+](=O)[O-]` the value was > 35 µM (inactive); for `Cc1ccc(-c2nnn(CC(=O)N(Cc3cccs3)C(C(=O)NC3CCCCC3)c3ccco3)n2)o1` (stereo unspecified), 33.4 µM; for `Cc1occc1C(=O)NC1CCCCCC1`, > 35 µM (inactive).
Turning to `Cc1oc(-c2ccc(Cl)cc2)nc1CS(=O)CC(=O)NCCN1CCCCCC1` (stereo unspecified), the EC50 is > 35 µM (inactive).
Consider `O=C(N/N=C/c1cc(Cl)cc(Cl)c1O)c1ccncc1`, for which the EC50 is > 35 µM (inactive).
In the case of `Oc1ccc(/C=N/NC(=S)NC2CC3CCC2C3)cc1` (stereo unspecified), the EC50 was > 35 µM (inactive).
In the case of `CCOc1ccccc1N(CC(=O)N/N=C/c1cc(Br)ccc1OC)S(C)(=O)=O`, the EC50 was > 35 µM (inactive).
Take `Cc1cccc(N2CCN(c3ccc(N4C(=O)CCCC4=O)cc3[N+](=O)[O-])CC2C)c1` (stereo unspecified): the EC50 was > 35 µM (inactive).
For `Cc1ccc(OCCNC(=O)CCc2nc3sc4c(c3c(=O)[nH]2)CCCC4)cc1` the value was > 35 µM (inactive); for `CCOC(=O)/C(C#N)=C/C=C1\C=Cc2ccccc2N1CC`, > 35 µM (inactive); for `Cc1cccc(OCCn2cccc2/C=C2/C(=O)NC(=O)N(Cc3ccco3)C2=O)c1`, > 35 µM (inactive).
For `C=CCOc1nc(-c2ccccc2Cl)nc2ccccc12`, the EC50 was > 35 µM (inactive).
On to `OCCNc1c2ccccc2nc2ccccc12`, for which the EC50 is 32.4 µM.
For `COc1ccc2ccccc2c1/C=N/Nc1cccc(C(=O)O)c1` the value was > 35 µM (inactive).
The result for `CCCCn1c(/C=N/Nc2nc3ccccc3[nH]2)nc2ccccc21` reads 7.81 µM; that for `O=C(N/N=C(\Cc1ncc[nH]1)c1ccccc1)c1ccccc1`, > 35 µM (inactive).
Consider `Cc1cc(N/C=C/C(=O)c2ccc(Br)cc2)no1`, for which the EC50 was > 35 µM (inactive).
For `CCn1nc(C(=O)OCC(=O)NC(C)C)c2ccccc2c1=O` the value was > 35 µM (inactive); for `O=c1cc(CO)[nH]cc1OCc1ccccc1`, > 35 µM (inactive).
The result for `CCN(CC)c1ccc(/C=N/NC(=O)c2cnccn2)c(O)c1` reads 9.54 µM; that for `CC(C)CC1NC(=O)N(Cc2cc(=O)n3ccsc3n2)C1=O` (stereo unspecified), > 35 µM (inactive).
The result for `FC(F)(F)c1ccc2c(c1)NP(=S)(N1CCOCC1)c1nccn1-2` (stereo unspecified) reads > 35 µM (inactive).
As for `Oc1ccccc1/C=N/Nc1ncc(Br)cn1`, the EC50 is 13.4 µM.
As for `O=C(CSc1nc2ccccc2c(=O)[nH]1)Nc1ccc(Br)cc1`, the EC50 was > 35 µM (inactive).
For `O=C(N/N=C\c1c(O)ccc2ccccc12)c1cncc(Br)c1` the value was 6.48 µM.
Turning to `COC(=O)C1=C(C)N(Cc2ccc(OC)cc2)C(=O)C1`, the EC50 was > 35 µM (inactive).
With `COc1ccc(OC)c(NC2=NCCCS2)c1`, the EC50 is > 35 µM (inactive).
`Cc1ccc(-n2nc3c(=O)n(CC(=O)NCc4ccccc4)nc(C)c3c2C)cc1`: the EC50 is > 35 µM (inactive).
For the compound `Cc1ccc(S(=O)(=O)N2CCN(c3ccccn3)CC2)cc1`, the EC50 was > 35 µM (inactive).
The result for `O=C(NCCCN1CCOCC1)c1cc(-c2ccccc2)on1` reads 9.39 µM; that for `Cc1ccc(C(=O)CSc2cc(C)[nH]c(=O)n2)cc1`, > 35 µM (inactive).
`O=C(Cn1c(SCC(=O)N2CCCc3ccccc32)nc2ccccc21)N1CCCC1`: the EC50 was > 35 µM (inactive).
The result for `O=C(C[n+]1ccn(CCCNP2(=O)C=C(c3ccccc3)OC(c3ccccc3)=C2)c1)c1cccs1` reads > 35 µM (inactive); that for `CCCC(=O)NC(c1ccc(C(C)C)cc1)c1ccc2cccnc2c1O` (stereo unspecified), 2.1 µM.
On to `Cc1ccc(S(=O)(=O)/N=C2/NC(=O)/C(=C/c3cc([N+](=O)[O-])ccc3O)S2)cc1`, for which the EC50 is > 35 µM (inactive).
Take `CC1(C)CC(NC(=O)CCC2CCCC2)CC(C)(C)N1`: the EC50 was > 35 µM (inactive).
As for `O=C(O)c1cccc(-n2cccc2/C=C2/SC(=O)N(CC(=O)N3CCCC3)C2=O)c1`, the EC50 is > 35 µM (inactive).
`Cc1nc(NCCc2ccccc2)c(C#N)c(C)c1[N+](=O)[O-]`: the EC50 was > 35 µM (inactive).
On to `Cc1ccc(C(=O)CSc2ccc(-c3ccncc3)nn2)cc1`, for which the EC50 was > 35 µM (inactive).
With `N/C(=N\OC(=O)c1cccs1)c1ccc(Cl)cc1`, the EC50 was > 35 µM (inactive).
With `Cc1nnsc1C(=O)N/N=C/c1ccc2ccccc2c1O`, the EC50 is 3.13 µM.
With `CC1CCN(Cc2c(C(=O)N/N=C/c3cc(Cl)ccc3O)nnn2-c2nonc2N)CC1`, the EC50 was 13.9 µM.
As for `COc1ccc(NC(=O)Nc2ccc(Br)cn2)cc1`, the EC50 was > 35 µM (inactive).
On to `C/C(=N\NC(=O)c1nnn(-c2nonc2N)c1-c1ccccc1)c1ccccc1O`, for which the EC50 was 11.1 µM.
Turning to `O=C(O)c1cccc(N2CCCC2=O)c1`, the EC50 was > 35 µM (inactive).
For `CC(=O)Nc1ccc(Nc2nc(C)c([N+](=O)[O-])c(Nc3ccc(NC(C)=O)cc3)n2)cc1` the value was > 35 µM (inactive).
In the case of `CCCCN(C(=O)c1c(C)[nH]c(C(=O)OCC)c1C)c1ccccc1`, the EC50 is > 35 µM (inactive).
For the compound `O=C(N/N=C/C(Br)=C\c1ccccc1)c1n[nH]c2c1CCC2`, the concentration for a half-maximal effect (EC50) was 7.85 µM.
Consider `Cc1ccccc1CN1C(=O)CSc2ccc(C(=O)N3CCOCC3)cc21`, for which the EC50 was > 35 µM (inactive).
For `COc1ccc(N=C2C(=O)N3CCCc4cccc2c43)cc1` the value was > 35 µM (inactive); for `CCN(CC)c1ccc(/C=N/NC(=O)c2ccco2)c(O)c1`, 6.97 µM.
The result for `Cc1ccc(-c2cc(C(=O)Nc3cccnc3)[nH]n2)c(O)c1C` reads > 35 µM (inactive); that for `CSc1nc(C)cc(C)c1C#N`, > 35 µM (inactive).
For `COc1ccc(NC(=O)C2CCN(S(=O)(=O)c3ccc4c(c3)CC(C)N4C(C)=O)CC2)cc1OC` (stereo unspecified) the value was > 35 µM (inactive); for `COc1ccc(NC(=O)CCC(=O)N(Cc2ccc(OC)c(OC)c2)c2nccs2)cc1`, > 35 µM (inactive).
In the case of `O=C(N/N=C/c1cc([N+](=O)[O-])ccc1O)c1cccc2cc[nH]c12`, the EC50 was 20.8 µM.
As to `COc1cccc(C(NC(C)=O)c2ccc3cccnc3c2O)c1` (stereo unspecified), the EC50 is 5.94 µM.
The result for `O=C(COc1ccc(Cl)cc1Cl)N/N=C/CCc1ccccc1` reads > 35 µM (inactive).
Regarding `Oc1ccc(CN2CCC(Cc3ccccc3)CC2)c2cccnc12`, the EC50 was 5.17 µM.
For `Cc1cc(C)c(NS(=O)(=O)c2ccc3c(c2)NC(=O)CCS3)c(C)c1` the value was > 35 µM (inactive).
In the case of `O=c1c2ccccc2nc2c3ccccc3c(NCCN3CCOCC3)nn12`, the EC50 is > 35 µM (inactive).
The result for `Cc1cc(C(=O)O)oc(=O)c1` reads > 35 µM (inactive); that for `O=C(Nc1nc(-c2ccccn2)cs1)c1cc(Cl)ccc1[N+](=O)[O-]`, 9.95 µM.
The result for `CN(/N=C/c1c[nH]c2ccccc12)c1cnn(-c2ccc(F)c(Cl)c2)c(=O)c1Cl` reads > 35 µM (inactive); that for `CC(C)(C)c1ccc(N2C(=O)CC(C/C=C/c3ccccc3)C2=O)cc1` (stereo unspecified), > 35 µM (inactive); that for `O=C(CC1SC(N2CCCC2)=NC1=O)Nc1ccc(C(=O)Nc2ncccc2O)cc1` (stereo unspecified), 29.7 µM.
The result for `CCOC(=O)C(NC(C)=O)(N1CCOCC1)C(F)(F)F` (stereo unspecified) reads > 35 µM (inactive); that for `Cc1snc(SCC(=O)N/N=C(\N)COc2cccc(C(F)(F)F)c2)c1C#N`, 22.5 µM.
As to `COC(=O)c1ccc(C(C(=O)NCc2ccccc2)N(Cc2ccco2)C(=O)c2cnccn2)cc1` (stereo unspecified), the EC50 was > 35 µM (inactive).

The values are drawn from PubChem BioAssay AID434951 (Broad Institute, 2010).
